Reference: patent US12459931B2, “Benzothiophene derivative regulator, preparation method therefor and use thereof” (Shanghai Hansoh Biomedical Co., Ltd., priority 2019, dated 2025)
Like-named read-outs stand apart in the source and are kept apart here.

Key:
[1] = Pharmacokinetic assay in Balb/c mice (plasma and brain tissue); assay type: in vivo; conditions: p.o. 5 mg/kg; for AUC(0-t) / AUC(0-inf) / Cmax / MRT / half-life: male, Balb/c, mouse, po; for AUC(0-t): read-out: Area under curve AUC0-t; for AUC(0-inf): read-out: Area under curve AUC0-∞; for Cmax: read-out: Plasma concentration Cmax; for MRT: read-out: Average residence time MRT; for half-life: read-out: Half life t1/2 (converted)
Protocol: III. Pharmacokinetic Assay in Balb/c Mice
Balb/c mice were used as test animals. The pharmacokinetic behavior of the compounds of Examples of the present invention was studied in mouse body (plasma and brain tissue) by orally administration at a dose of 5 mg/kg.
Male Balb/c mice (12 mice per group), purchased from Shanghai Jiesijie Laboratory Animal Co., LTD, with Certificate No.: SCXK (Shanghai) 2013-0006 N0.311620400001794. • 2.3 Formulation of the preparation: […]
The test compound was dissolved in 0.5% CMC-Na (1% Tween80) by sonication to formulate a clear solution or homogeneous suspension. • 2.4 Administration:
After an overnight fast, male Balb/c mice (12 mice per group) were administered p.o. with the test compound at a dose of 5 mg/kg and a volume of 10 mL/kg. • 2.5 Sample collection:
0.2 mL of blood was taken from the heart of the mouse before administration and at 1, 2, 4, 8 and 24 hours after administration, and the mice were sacrificed with CO2. The samples were stored in EDTA-K2 tubes, and centrifuged for 6 minutes at 4° C., 6000 rpm to separate the plasma. The plasma samples were stored at −80° C. Whole brain tissue was taken out, weighed, placed in a 2 mL centrifuge tube, and stored at −80° C. • 2.6 Sample process:
1) 160 μL of acetonitrile was added to 40 μL of the plasma sample for precipitation, and then the mixture was centrifuged at 3500×g for 5 to 20 minutes.
2) 90 μL of acetonitrile containing internal standard (100 ng/mL) was added to 30 μL of the plasma and brain homogenate sample for precipitation, and then the mixture was centrifuged at 13000 rpm for 8 minutes.
3) 70 μL of water was added to 70 μL of the treated supernatant and mixed by vortex for 10 minutes. 20 μL of the solution was taken to analyze the concentration of the test compound by LC/MS/MS. LC/MS/MS analytical instrument: AB Sciex API 4000 Qtrap. • 2.7 Liquid chromatography analysis: • Liquid chromatography condition: Shimadzu LC-20AD pump • Chromatographic column: Agilent ZORBAX XDB-C18 (50×2.1 mm, 3.5 μm); Mobile phase: Eluent A was 0.1% formic acid in water, and Eluent B was acetonitrile • Flow rate: 0.4 mL/min • Elution time: 0-4.0 minutes the eluent is as follows:
The main parameters of pharmacokinetics were calculated by WinNonlin 6.1.

5-HT2A receptor = 5-HT2A receptor (Homo sapiens (Human), UniProt P28223); experiment: Radioligand-receptor binding assay, 5-HT2A receptor ([3H]-Ketanserin); conditions: [3H]-Ketanserin 2 nM, human 5-HT2A receptor membrane; read-out: 5HT-2A binding activity IC50
5-HT2A receptor, sequence (P28223 whole entry): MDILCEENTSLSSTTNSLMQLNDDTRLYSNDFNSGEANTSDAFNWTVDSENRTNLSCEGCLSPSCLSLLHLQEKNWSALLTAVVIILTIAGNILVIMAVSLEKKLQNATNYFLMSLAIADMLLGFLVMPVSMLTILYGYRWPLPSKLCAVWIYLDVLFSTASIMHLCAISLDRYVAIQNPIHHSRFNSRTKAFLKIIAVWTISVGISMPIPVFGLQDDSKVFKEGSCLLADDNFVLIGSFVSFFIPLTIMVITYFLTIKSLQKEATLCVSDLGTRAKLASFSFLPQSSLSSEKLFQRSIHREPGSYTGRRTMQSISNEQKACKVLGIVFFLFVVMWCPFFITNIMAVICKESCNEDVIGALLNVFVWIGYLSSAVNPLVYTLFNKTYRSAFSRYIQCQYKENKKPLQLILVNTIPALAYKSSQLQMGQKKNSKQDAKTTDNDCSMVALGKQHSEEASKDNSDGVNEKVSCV
Protocol: Determination of the Binding Ability of the Compounds of the Present Invention to 5-HT2A Receptor
The objective of this test example is to determine the affinity of the compounds for 5-HT2A receptor.
Assay buffer: 50 mM Tris-HCl pH 7.4, 4 mM CaCl2); wash solution: 50 mM Tris-HCl pH 7.4, stored at 4° C.; 0.5% PEI solution: 0.5 g PEI dissolve in 100 mL ddH2O, 4° C. storage of spare.
5 μL of the test compounds (0.005 nM to 100 nM, 10 concentrations in total) and 100 μL of buffer were added to a 96-well assay plate. 1.5 μL of cell membrane and 300 L of buffer were added to each well. The plate was shaken at 600 rpm for 5 min. A mixed solution of 100 μL of buffer and [^3H]-Ketanserin (the final concentration was 2 nM) was added to each well. The plate was shaken at 600 rpm for 5 min, and incubated at 27° C. for 30 min. The […]-96 GF/B filter plate pre-incubated with 0.5% PEI for 1 h was washed twice with the buffer (1 mL/well). The cell membrane suspension was added to the […]-96 GF/B filter plate, washed 4 times, and incubated at 55° C. for 10 min. 40 μL of ULTIMA GOLD was added to each well, and liquid scintillation counting was carried out.
(§1) The CPM (Counts per minute) values were determined by TopCount. […] The 10 concentrations of the compound were from 100 nM to 0.005 nM after 3-fold dilution of the reaction system. The percent inhibition rate and ten-point concentration data were fitted to the parametric nonlinear logistic equation by using GraphPad prism to calculate the IC50 values of the compound.

[2] = biological target: Human Dopamine D3 Receptor (Homo sapiens (Human), UniProt P35462); experiment: Radioligand-receptor binding assay, dopamine D3 receptor ([3H]-methylspiperone); conditions: [3H]-methylspiperone 0.5 nM, human D3 receptor membrane
Human Dopamine D3 Receptor, sequence (P35462 whole entry): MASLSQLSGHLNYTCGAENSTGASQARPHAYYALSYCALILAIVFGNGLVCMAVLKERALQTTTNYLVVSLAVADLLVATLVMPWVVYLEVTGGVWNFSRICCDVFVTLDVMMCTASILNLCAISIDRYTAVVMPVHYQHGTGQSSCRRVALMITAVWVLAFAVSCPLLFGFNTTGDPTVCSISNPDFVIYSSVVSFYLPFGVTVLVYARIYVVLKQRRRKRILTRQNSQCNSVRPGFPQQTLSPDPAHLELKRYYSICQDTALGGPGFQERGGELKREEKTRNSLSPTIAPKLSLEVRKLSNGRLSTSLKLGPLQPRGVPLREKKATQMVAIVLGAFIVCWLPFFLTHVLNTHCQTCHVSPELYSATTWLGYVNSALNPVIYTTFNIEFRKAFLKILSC
Protocol: Determination of the Binding Ability of the Compounds of the Present Invention to Dopamine D3 Receptor
The objective of this test example is to determine the affinity of the compounds for dopamine D3 receptor.
Assay buffer: 50 mM Tris-HCl pH 7.4, 10 mM MgCl2; wash solution: 50 mM Tris-HCl pH 7.4, stored at 4° C.; 0.5% PEI solution: 0.5 g PEI dissolve in 100 mL ddH2O, 4° C. storage of spare.
5 μL of the test compounds (0.005 nM to 100 nM, 10 concentrations in total) and 100 μL of buffer were added to a 96-well assay plate. 1 μL of cell membrane and 300 μL of buffer were added to each well, and the plate was shaken at 600 rpm for 5 min. A mixed solution of 100 μL of buffer and [^3H]-methylspiperone (the final concentration was 0.5 nM) was added to each well. The plate was shaken at 600 rpm for 5 min, and incubated at 27° C. for 30 min. The […]-96 GF/B filter plate pre-incubated with 0.5% PEI for 1 h was washed twice with the buffer (1 mL/well). The cell membrane suspension was added to the […]-96 GF/B filter plate, washed 4 times, and incubated at 55° C. for 10 min. 40 μL of ULTIMA GOLD was added to each well, and liquid scintillation counting was carried out.
as §1

| SMILES | Peak time tmax ([1]; Brain) [h] | Peak time tmax ([1]; Plasma) [h] | AUC(0-t) ([1]; Brain) [ng·h/mL] | AUC(0-inf) ([1]; Brain) [ng·h/mL] | Cmax ([1]; Brain) [ng/mL] | AUC(0-t) ([1]; Plasma) [ng·h/mL] | AUC(0-inf) ([1]; Plasma) [ng·h/mL] | MRT ([1]; Plasma) [h] | half-life ([1]; Plasma) [h] | Cmax ([1]; Plasma) [ng/mL] | IC50 (5-HT2A receptor) [nM] | IC50 [2] [nM] |
| --- | --- | --- | --- | --- | --- | --- | --- | --- | --- | --- | --- | --- |
| O=C(N[C@H]1CC[C@H](CCN2CCN(c3cccc4sccc34)CC2)CC1)C1(O)CC1 [Example 42, N-(Trans-4-(2-(4-(benzo[b]thiophen-4-yl)piperazin-1-yl)ethyl)cyclohexyl)-1-hydroxycyclopropane-1-carboxamide] | 1 | 1 | 3610 | 3890 | 330 | 4240 | 4370 | 6.84 | 4.84 | 477 | 0.26 | 0.2 |
| CC(C)(O)C(=O)N[C@H]1CC[C@H](CCN2CCN(c3cccc4sccc34)CC2)CC1 [Example 41, N-(Trans-4-(2-(4-(benzo[b]thiophen-4-yl)piperazin-1-yl)ethyl)cyclohexyl)-2-hydroxy-2-methylpropanamide] | 1 | 1 | 8120 | 13000 | 731 | 5210 | 6370 | 13.5 | 10.2 | 452 | 0.43 | 1.03 |
